Reference: patent EP3345917A1, “ANTIPROTOZOAL COMPOUNDS” (Bacoba AG, priority 2017, dated 2018)
Non-standard residues stand in square brackets, D forms with d. Residues, ends and D or L forms follow the SMILES beside them. *: point of attachment. CH3O(CH2CH2O)11CH2CH2CO = COCCOCCOCCOCCOCCOCCOCCOCCOCCOCCOCCOCCC(=O)*; Hexenoyl(2E,4S-Me) = CC[C@H](C)/C=C/C(=O)*; NH((S)CH(Me)CH2NMe2) = C[C@@H](CN(C)C)N*; NH(1-CH2NMe2-cBu) = CN(C)CC1(N*)CCC1; Gly(octyl) = CCCCCCCC[C@H](N)C(=O)O; Oxazole4CO(2-Me) = Cc1nc(C(=O)*)co1; X22 = CC1CC(C)CN(CCN*)C1; X24 = CN1CC2(C1)CN(*)C2; Hexanoyl = CCCCCC(=O)*; X23 = CN1CCC12CN(*)C2; Aib = CC(C)(N)C(=O)O; X14 = O=C(c1cocn1)*; βAla = NCCC(=O)O

Experiments:
[1] = system: Axenically grown Leishmania donovani amastigotes (strain MHOM/ET/67/L82); assay: Axenic Leishmania donovani amastigote resazurin assay; type: cell-based; settings: In vitro inhibition, read-out: L.don. ax
Method: (§1) Tests were done in triplicate.
Axenically grown Leishmania donovani amastigotes (strain MHOM/ET/67/L82) were grown and tests were done as previously described using the resazurin assay (Räz B et al. Acta Tropica 1997, 68:139-147). The plates were developed for 2-4 hours and read on a Spectramax Gemini XS micro plate fluorometer (Molecular Devices Cooperation) using an excitation wavelength of 536 nm and emission wavelength of 588 nm. Fluorescence development was measured and expressed as percentage of the negative control. […] Data were transferred to the graphic programme Softmax Pro (Molecular Devices), with which IC50 values were calculated.

[2] = system: Trypanosoma brucei rhodesiense (STIB 900 strain); assay: Alamar Blue assay against Trypanosoma brucei rhodesiense grown in axenic medium; type: cell-based; settings: In vitro inhibition, read-out: T.b.rhod.
Method: as §1
Trypanosoma brucei rhodesiense (STIB 900) were grown in axenic medium as described by Baltz et al. (1985) The samples were tested using the Alamar Blue assay protocol (Baltz T et al. EMBO J 1985; 4:1273-1277) to determine the 50% inhibitory concentration (IC50). […] Melarsoprol (Arsobal®, Sanofi-Aventis, Switzerland) was used as a reference drug (IC50= 0.03 ± 0.01 µM). Its purity was over 95 %, as was certified by the supplier. The IC50 values were calculated by using Softmax Pro software (Molecular Devices Cooperation, Sunnyvale, CA).

[3] = system: Trypanosoma cruzi trypomastigote forms (Tulahuen strain); assay: Intracellular Trypanosoma cruzi assay in L6-cells, beta-galactosidase/CPRG readout; type: cell-based; settings: In vitro inhibition, read-out: T.cruzi.
Method: as §1
Trypanosoma cruzi trypomastigote forms (Tulahuen strain C2C4 containing β-galactosidase (Lac Z) gene) were cultured as described by Buckner et al. (Buckner FS et al. Antimicrob Agents Ch1996; 40: 2592-2597) in rat myoblast cells (L6-cells). […] After incubation, the substrate chlorophenyl red β-D-galactopyranoside agent CPRG/Nonident was added to all wells and a color change was developed within 2 to 6 h. The plates were read photometrically at 540 nm (Molecular Devices). Data were evaluated and IC50 values calculated using Softmax Pro software (Molecular Devices).

[4] = system: Plasmodium falciparum; assay: 3H-hypoxanthine incorporation assay against Plasmodium falciparum; type: cell-based; settings: In vitro inhibition, read-out: P.falc NF5
Method: as §1
IC50 values were calculated by linear interpolation.

[5] = Cytotoxicity assay on L6-cells (Alamar Blue); settings: rat, Cytotox L6, Cytotoxicity against rat myoblast cells (L6)
Method: Tests were done in triplicate. IC50 values against the parasites as well as cytotoxic effects against rat myoblast (L6-cells) were determined by serial dilution and repeated twice.
After 68 h of incubation under humidified 5% CO2 atmosphere, 10 µl of the Alamar blue marker was added to all wells. The plates were incubated for an additional 2 h. […] The IC50S were calculated by Softmax Pro software (Molecular Devices Cooperation, Sunnyvale, CA). […] Cytotoxicity was measured against rat myoblast cells (Cytotox L6).

CCCCCCCC[C@H](NC(=O)[C@@H]1CCCN1C(=O)/C=C/[C@@H](C)CC)C(=O)N[C@@H](CO)C(=O)NC(C)(C)C(=O)N[C@@H](CC(C)C)C(=O)N[C@@H](CC(C)C)C(=O)NC(C)(C)C(=O)NC(C)(C)C(=O)NCCC(=O)N[C@@H](C)CN(C)C (stereo in doubt) [Compound 5521, (2S)-N-[(1S)-1-[(1-{[(1S)-1-{[(1S)-1-{[1-({1-[(2-{[(2S)-1-(dimethylamino)propan-2-yl]carbamoyl}ethyl)carbamoyl]-1-methylethyl}carbamoyl)-1-methylethyl]carbamoyl}-3-methylbutyl]carbamoyl}-3-methylbutyl]carbamoyl}-1-methylethyl)carbamoyl]-2-hydroxyethyl]-2-{[(2S)-1-[(2E,4S)-4-methylhex-2-enoyl]pyrrolidin-2-yl]formamido}decanamide]
IC50 [1]: 3.6 nM | IC50 [2]: 1.3 nM | IC50 [3]: 807 nM | IC50 [4]: 8.5 nM | IC50 at 70 h [5]: 1650 nM

CCCCCCCC[C@H](NC(=O)c1cocn1)C(=O)N[C@H](C(=O)NC(C)(C)C(=O)N[C@@H](CC(C)C)C(=O)N[C@@H](CC(C)C)C(=O)NC(C)(C)C(=O)NC(C)(C)C(=O)NCCC(=O)N[C@@H](C)CN(C)C)[C@@H](C)O [Compound 5639, (2S)-N-[(1S,2R)-1-[(1-{[(1S)-1-{[(1S)-1-{[1-({1-[(2-{[(2S)-1-(dimethylamino)propan-2-yl]carbamoyl}ethyl)carbamoyl]-1-methylethyl}carbamoyl)-1-methylethyl]carbamoyl}-3-methylbutyl]carbamoyl}-3-methylbutyl]carbamoyl}-1-methylethyl)carbamoyl]-2-hydroxypropyl]-2-[(1,3-oxazol-4-yl)formamido]decanamide] (X14-[Gly(octyl)]T[Aib]LL[Aib][Aib][βAla]-{NH((S)CH(Me)CH2NMe2)})
IC50 [1]: 540 nM | IC50 [2]: 22.5 nM | IC50 [3]: 5360 nM | IC50 [4]: 244 nM | IC50 at 70 h [5]: 1640 nM

CCCCCCCC[C@H](NC(=O)[C@@H]1CCCN1C(=O)c1coc(C)n1)C(=O)N[C@@H](CC(C)C)C(=O)NC(C)(C)C(=O)N[C@@H](CC(C)C)C(=O)N[C@@H](CC(C)C)C(=O)NC(C)(C)C(=O)N[C@@H](CC(C)C)C(=O)NCCC(=O)NC1(CN(C)C)CCC1 [Compound 6329, (2S)-N-[(1S)-1-[(1-{[(1S)-1-{[(1S)-1-[(1-{[(1S)-1-{[2-({1-[(dimethylamino)methyl]cyclobutyl}carbamoyl)ethyl]carbamoyl}-3-methylbutyl]carbamoyl}-1-methylethyl)carbamoyl]-3-methylbutyl]carbamoyl}-3-methylbutyl]carbamoyl}-1-methylethyl)carbamoyl]-3-methylbutyl]-2-{[(2S)-1-(2-methyl-1,3-oxazole-4-carbonyl)pyrrolidin-2-yl]formamido}decanamide] ({Oxazole4CO(2-Me)}-P[Gly(octyl)]L[Aib]LL[Aib]L[βAla]-{NH(1-CH2NMe2-cBu)})
IC50 [1]: 0.17 nM | IC50 [2]: 0.08 nM | IC50 [3]: 4.6 nM | IC50 [4]: 0.17 nM | IC50 at 70 h [5]: 398 nM

CCCCCCCC[C@H](NC(=O)[C@@H]1CCCN1C(=O)/C=C/[C@@H](C)CC)C(=O)N[C@H](C(=O)NCCC(=O)N[C@@H](C)CN(C)C)[C@H](O)C(C)C [Compound 5523, (2S)-N-[(1S,2R)-1-[(2-{[(2S)-1-(dimethylamino)propan-2-yl]carbamoyl}ethyl)carbamoyl]-2-hydroxy-3-methylbutyl]-2-{[(2S)-1-[(2E,4S)-4-methylhex-2-enoyl]pyrrolidin-2-yl]formamido}decanamide]
IC50 [1]: 482 nM | IC50 [2]: 2440 nM | IC50 [3]: 5730 nM | IC50 [4]: 4750 nM | IC50 at 70 h [5]: 8610 nM

CCCCCCCC[C@H](NC(=O)[C@@H]1CCCN1C(=O)CCCCC)C(=O)N[C@@H](CC(C)C)C(=O)NC(C)(C)C(=O)N[C@@H](CC(C)C)C(=O)N[C@@H](CC(C)C)C(=O)NC(C)(C)C(=O)NC(C)(C)C(=O)NCCC(=O)NCCN1CC(C)CC(C)C1 (stereo partly drawn) [Compound 5885, (2S)-N-[(1S)-1-[(1-{[(1S)-1-{[(1S)-1-{[1-({1-[(2-{[2-(3,5-dimethylpiperidin-1-yl)ethyl]carbamoyl}ethyl)carbamoyl]-1-methylethyl}carbamoyl)-1-methylethyl]carbamoyl}-3-methylbutyl]carbamoyl}-3-methylbutyl]carbamoyl}-1-methylethyl)carbamoyl]-3-methylbutyl]-2-{[(2S)-1-hexanoylpyrrolidin-2-yl]formamido}decanamide] (Hexanoyl-P[Gly(octyl)]L[Aib]LL[Aib][Aib][βAla]-X22)
IC50 [1]: 46800 nM | IC50 [2]: 0.2 nM | IC50 [3]: 42600 nM | IC50 [4]: 0.9 nM | IC50 at 70 h [5]: 45.6 nM

CCCCCCCC[C@H](NC(=O)[C@@H]1CCCN1C(=O)c1coc(C)n1)C(=O)N[C@@H](CC(C)C)C(=O)NC(C)(C)C(=O)N[C@@H](CC(C)C)C(=O)N[C@@H](CC(C)C)C(=O)NC(C)(C)C(=O)NC(C)(C)C(=O)NCCC(=O)N1CC2(CCN2C)C1 [Compound 6255, (2S)-2-{[(2S)-1-(2-methyl-1,3-oxazole-4-carbonyl)pyrrolidin-2-yl]formamido}-N-[(1S)-3-methyl-1-[(1-methyl-1-[(1S)-3-methyl-1-{[(1S)-3-methyl-1-{{[1-methyl-1-({1-methyl-1-[(3-{1-methyl-1,6-diazaspiro[3.3]heptan-6-yl}-3-oxopropyl)carbamoyl]ethyl}carbamoyl)ethyl]carbamoyl}butyl]carbamoyl}butyl]carbamoyl}ethyl)carbamoyl]butyl]decanamide] ({Oxazole4CO(2-Me)}-P[Gly(octyl)]L[Aib]LL[Aib][Aib][βAla]-X23)
IC50 [1]: 4090 nM | IC50 [2]: 461 nM | IC50 [3]: 3710 nM | IC50 at 70 h [5]: 7170 nM

CCCCCCCC[C@H](NC(=O)[C@@H]1CCCN1C(=O)c1coc(C)n1)C(=O)N[C@@H](CC(C)C)C(=O)NC(C)(C)C(=O)N[C@@H](CC(C)C)C(=O)N[C@@H](CC(C)C)C(=O)NC(C)(C)C(=O)NC(C)(C)C(=O)NCCC(=O)N1CC2(CN(C)C2)C1 [Compound 6256, (2S)-2-{[(2S)-1-(2-methyl-1,3-oxazole-4-carbonyl)pyrrolidin-2-yl]formamido}-N-[(1S)-3-methyl-1-[(1-methyl-1-[(1S)-3-methyl-1-{[(1S)-3-methyl-1-{{[1-methyl-1-({1-methyl-1-[(3-{6-methyl-2,6-diazaspiro[3.3]heptan-2-yl}-3-oxopropyl)carbamoyl]ethyl}carbamoyl)ethyl]carbamoyl}butyl]carbamoyl}butyl]carbamoyl}ethyl)carbamoyl]butyl]decanamide] ({Oxazole4CO(2-Me)}-P[Gly(octyl)]L[Aib]LL[Aib][Aib][βAla]-X24)
IC50 [1]: 8670 nM | IC50 [2]: 316 nM | IC50 [3]: 4010 nM | IC50 at 70 h [5]: > 8060 nM

CCCCCCCC[C@H](NC(=O)[C@@H]1CCCN1C(=O)/C=C/[C@@H](C)CC)C(=O)N[C@H](C(=O)NC(C)(C)C(=O)N[C@@H](CC(C)C)C(=O)N[C@@H](CC(C)C)C(=O)NC(C)(C)C(=O)NC(C)(C)C(=O)NCCC(=O)N[C@@H](C)CN(C)C)[C@@H](C)O [Compound 5520] ({Hexenoyl(2E,4S-Me)}-P[Gly(octyl)]T[Aib]LL[Aib][Aib][βAla]-{NH((S)CH(Me)CH2NMe2)})
IC50 at 70 h [5]: 930 nM

CCCCCCCC[C@H](NC(=O)[C@@H]1CCCN1C(=O)CCOCCOCCOCCOCCOCCOCCOCCOCCOCCOCCOCCOC)C(=O)N[C@@H](CC(C)C)C(=O)NC(C)(C)C(=O)N[C@@H](CC(C)C)C(=O)N[C@@H](CC(C)C)C(=O)NC(C)(C)C(=O)NC(C)(C)C(=O)NCCC(=O)N[C@@H](C)CN(C)C [Compound 6067, (2S)-N-[(1S)-1-[(1-{[(1S)-1-{[(1S)-1-{[1-({1-[(2-{[(2S)-1-(dimethylamino)propan-2-yl]carbamoyl}ethyl)carbamoyl]-1-methylethyl}carbamoyl)-1-methylethyl]carbamoyl}-3-methylbutyl]carbamoyl}-3-methylbutyl]carbamoyl}-1-methylethyl)carbamoyl]-3-methylbutyl]-2-{[(2S)-1-(2,5,8,11,14,17,20,23,26,29,32,35-dodecaoxaoctatriacontanoyl)pyrrolidin-2-yl]formamido}decanamide] ({CH3O(CH2CH2O)11CH2CH2CO}-P[Gly(octyl)]L[Aib]LL[Aib][Aib][βAla]-{NH((S)CH(Me)CH2NMe2)})
IC50 at 70 h [5]: 4640 nM
